Reference: patent US8697098B2, “Polymer conjugated protein micelles” (South Dakota State University, priority 2011, dated 2014)
Converted amounts (≈) assume the structure as drawn. Like-named read-outs stand apart in the source and are kept apart here.

What was measured:
[1] = system: NCl/ADR-RES drug resistant human ovarian cancer cells; test: In vitro cytotoxicity, MTT assay; type: cell-based
Procedure: On the fifth day cytotoxicity analysis was performed using an MTT assay. Data points represent average±SE (n=4).
On day 5 cytotoxicity analysis was measured using an MTT assay. Data points represent average±SE (n=4).
The cells were washed twice with ice cold phosphate buffer and replaced with fresh media. […] On day 5 cytotoxicity analysis was performed using an MTT assay.
On the fifth day cytotoxicity analysis was performed using the MTT assay.

[2] = cited from earlier work
[3] = cited from earlier work; remark: listed apart in the source
[4] = system: JC mouse breast cancer cells; test: In vivo biodistribution in allograft breast tumor mouse model; conditions: i.v.; 3 hours after administration
Procedure: The tumor model was developed by subcutaneous injection of JC mouse breast cancer cells. […] Animals were sacrificed 3 hours after treatment administration. Tumor and organs were collected. Doxorubicin concentration in tumors and organs were determined using a fluorescence based isocratic HPLC method. […] Female nude mice (Charles River Laboratories, Wilmington, Mass.) were used in the study. JC mouse breast cancer cells (1×10^7 cells) were suspended in PBS and injected subcutaneously. […] After 3 hours, the mice were sacrificed and organs (liver, heart, lungs, spleen, brain and tumor) were collected and homogenized in 2 mL deionized water using a tissue homogenizer. After addition of 100 ng of daunorubicin (internal standard), tissue homogenates were lyophilized.
Dry tissues were weighed and extracted with 5 mL of methanol/chloroform mixture (65:35) using a shaker for 5 hours in the dark at room temperature. The extract was centrifuged at 13,000 rpm for 10 minutes at 4° C. The supernatant was evaporated under nitrogen gas and reconstituted in methanol/acetonitrile (50:50).

[5] = system: MCF-7 human breast cancer cells; test: In vitro cytotoxicity, MTT assay; type: cell-based; conditions: MCF7, 120 h, doxorubicin 15.62 nM to 1000 nM, MTT on day 5
Procedure: […]. On day 5 cytotoxicity analysis was performed using an MTT assay. Data points represents average±SE (n=4). […].
The cells were washed twice with ice cold phosphate buffer and replaced with fresh media. Media was replaced for every 48 hours. At day 5, cytotoxicity analysis was performed using the MTT assay.

[6] = comparison surfactant / block copolymers; cited from earlier work

SMILES | IC50 ([1]; 96 h) [nM] | solubility in water ([2]; free compound) | solubility in water ([2]; free drug) [µg/mL] | Log P ([3]; Table 3, cargo compound itself) | Log P [3] | IC50 ([1]; 120 h, doxorubicin 31.25 nM to 1000 nM, MTT on day 5, read-out: IC50) [nM] | doxorubicin accumulation in tumor [4] | IC50 [5] [nM] | critical micellar concentration (CMC) [6]
COc1cc(/C=C/C(=O)/C=C(O)/C=C/c2ccc(O)c(OC)c2)ccc1O [Curcumin] | 104 | practically insoluble in water | 0.011 (≈ 0.0299 µM) | 2.5 | 2.5 | – | – | – | –
COc1cccc2c1C(=O)c1c(O)c3c(c(O)c1C2=O)C[C@@](O)(C(=O)CO)C[C@@H]3O[C@H]1C[C@H](N)[C@H](O)[C@H](C)O1 [Doxorubicin] | – | practically insoluble in water | 0.015 (≈ 0.0276 µM) | – | – | 126 | no drug accumulation | 148 | –
CCN(CC)c1ccc2nc3c4ccccc4c(=O)cc-3oc2c1 [Nile red] | – | practically insoluble in water | – | 5 | – | – | – | – | –
CCCCCCCCCCCCOS(=O)(=O)[O-].[Na+] [sodium dodecyl sulfate] | – | – | – | – | – | – | – | – | about 2.304 g/L
